Results taken from patent US10519177B2, “Heterocyclic compounds and uses thereof” (Plexxikon Inc., priority 2013, dated 2019).
Read-outs that look alike come from different tables or passages of the source.

Assays:
[1] = system: bromodomain; test: at least one of the bromodomain cell assays of Example 57; format: cell-based; conditions: at least one of the bromodomain cell assays described in Example 57; read-out: IC50 in at least one of the bromodomain cell assays
[2] = system: MV-4-11 cells; test: Oncology cell growth assay MV-4-11 (CellTiter Glo); format: cell-based; conditions: Homo sapiens, MV4-11, 72 h, read-out: Cell activity (IC50 μM) MV-4-11 3d-Growth
How it was run: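 Growth read by CellTiter Glo luminescence after 72 h compound treatment of MLL-AF4-bearing MV-4-11 cells (3000/well). Titration: 8 points, 1:3 steps, maximum 10 μM, 0.2% DMSO final. Data normalized to DMSO wells, four-parameter fit gives pIC50.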

[3] = biological target: BRD4-BD12 (1-477) (Homo sapiens (Human), UniProt O60885); test: Alphascreen binding assay BRD4-BD12; conditions: BRD4(1 2) H4; read-out: Biochemical activity (IC50 μM) BRD4(1 2) H4
How it was run: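 In this competition format, compounds displace a biotinylated tetra-acetyl H4 peptide from E. coli-expressed human BRD4 bromodomain constructs captured on nickel chelate beads. The reaction runs at pH 7.5 with 2 mM DTT and detergent for 1 h at room temperature before a 30 min bead step.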

Row | Structure (SMILES) | IC50 [1] | IC50 ([2]; MV-4-11, 3d growth) | IC50 [3] | IC50 [2]
1 | Cc1noc(C)c1-c1cnc2c(-c3ccc(C#N)nc3)cn(C(c3ccccn3)c3ccccn3)c2c1 [P-0597, 5-[1-[bis(2-pyridyl)methyl]-6-(3,5-dimethylisoxazol-4-yl)pyrrolo[3,2-b]pyridin-3-yl]pyridine-2-carbonitrile] | < 10 µM | < 1 µM | < 1 µM | 
2 | Cc1noc(C)c1-c1cnc2c(-c3ccc(C(N)=O)cc3)cn(CC3(F)CCCCC3)c2c1 [P-0466, 4-[6-(3,5-dimethylisoxazol-4-yl)-1-[(1-fluorocyclohexyl)methyl]pyrrolo[3,2-b]pyridin-3-yl]benzamide] | < 10 µM | < 1 µM | < 1 µM | 
3 | Cc1ccc(-c2cn(CC3(F)CCCCC3)c3cc(-c4c(C)noc4C)cnc23)cn1 [P-0463, 4-[1-[(1-fluorocyclohexyl)methyl]-3-(6-methyl-3-pyridyl)pyrrolo[3,2-b]pyridin-6-yl]-3,5-dimethyl-isoxazole] | < 10 µM | < 1 µM | < 1 µM | 
4 | COC(=O)c1ccc(-c2cn(CC3CCCC3)c3cc(-c4c(C)noc4C)cnc23)cc1 [P-0550, methyl 4-[1-(cyclopentylmethyl)-6-(3,5-dimethylisoxazol-4-yl)pyrrolo[3,2-b]pyridin-3-yl]benzoate] | < 10 µM | 1 to 10 µM | < 1 µM | 
5 | COC(=O)c1ccc(-n2cc(CC3CCC(F)(F)CC3)c3cc(-c4c(C)noc4C)cnc32)cc1 [P-0544, methyl 4-[3-[(4,4-difluorocyclohexyl)methyl]-5-(3,5-dimethylisoxazol-4-yl)pyrrolo[2,3-b]pyridin-1-yl]benzoate] | < 10 µM | 1 to 10 µM | < 1 µM | 
6 | Cc1nn(C)cc1-c1cn(CC2CCC(F)(F)CC2)c2cc(-c3c(C)noc3C)cnc12 [P-0395, 4-[1-[(4,4-difluorocyclohexyl)methyl]-3-(1,3-dimethylpyrazol-4-yl)pyrrolo[3,2-b]pyridin-6-yl]-3,5-dimethyl-isoxazole] | < 10 µM |  | < 1 µM | < 1 µM
7 | [2H]C([2H])(C1CCC(F)(F)CC1)n1cc(-c2ccc(N)nc2)c2ncc(-c3c(C)noc3C)cc21 [P-0347, 5-[1-[dideuterio-(4,4-difluorocyclohexyl)methyl]-6-(3,5-dimethylisoxazol-4-yl)pyrrolo[3,2-b]pyridin-3-yl]pyridin-2-amine] | < 10 µM |  | < 1 µM | < 1 µM
8 | [2H]C([2H])(C1CCC(F)(F)CC1)n1cc(-c2cnc(C3CC3)nc2)c2ncc(-c3c(C)noc3C)cc21 [P-0349, 4-[3-(2-cyclopropylpyrimidin-5-yl)-1-[dideuterio-(4,4-difluorocyclohexyl)methyl)pyrrolo[3,2-b]pyridin-6-yl]-3,5-dimethyl-isoxazole] | < 10 µM |  | < 1 µM | < 1 µM
9 | COC(=O)c1ccc(-c2cn(Cc3ccccn3)c3cc(-c4c(C)noc4C)cnc23)cc1 [P-0435, methyl 4-[6-(3,5-dimethylisoxazol-4-yl)-1-(2-pyridylmethyl)pyrrolo[3,2-b]pyridin-3-yl]benzoate] | < 10 µM | < 1 µM | < 1 µM | 
10 | Cc1noc(C)c1-c1cnc2c(-c3cnn(CC(F)(F)F)c3)cn(CC3CCCCC3)c2c1 [P-0553, 4-[1-(cyclohexylmethyl)-3-[1-(2,2,2-trifluoroethyl)pyrazol-4-yl]pyrrolo[3,2-b]pyridin-6-yl]-3,5-dimethyl-isoxazole] | < 10 µM | < 1 µM | < 1 µM | 
11 | Cc1noc(C)c1-c1cnc2c(-c3cnc(N)nc3)cn(CC3(F)CCCCC3)c2c1 [P-0473, 5-[6-(3,5-dimethylisoxazol-4-yl)-1-[(1-fluorocyclohexyl)methyl]pyrrolo[3,2-b]pyridin-3-yl]pyrimidin-2-amine] | < 10 µM | < 1 µM | < 1 µM | 
12 | COC(=O)c1ccc(-c2cn([C@@H](C)c3ccccn3)c3cc(-c4c(C)noc4C)cnc23)cc1 [P-0509, methyl 4-[6-(3,5-dimethylisoxazol-4-yl)-1-[(1S)-1-(2-pyridyl)ethyl]pyrrolo[3,2-b]pyridin-3-yl]benzoate] | < 10 µM | < 1 µM | < 1 µM | 
13 | Cc1noc(C)c1-c1cnc2c(-c3cnn(C)c3C)cn(CC3CCC(F)(F)CC3)c2c1 [P-0394, 4-[1-[(4,4-difluorocyclohexyl)methyl]-3-(1,5-dimethylpyrazol-4-yl)pyrrolo[3,2-b]pyridin-6-yl]-3,5-dimethyl-isoxazole] | < 10 µM |  | < 1 µM | < 1 µM
14 | Cc1noc(C)c1-c1cnc2c(-c3ccc(C#N)cc3)cn(CC3(F)CCC(F)(F)CC3)c2c1 [P-0458, 4-[6-(3,5-dimethylisoxazol-4-yl)-1-[(1,4,4-trifluorocyclohexyl)methyl]pyrrolo[3,2-b]pyridin-3-yl]benzonitrile] | < 10 µM | < 1 µM | < 1 µM | 
15 | CNC(=O)c1ccc(-c2cn(CC3(F)CCCCC3)c3cc(-c4c(C)noc4C)cnc23)cc1 [P-0465, 4-[6-(3,5-dimethylisoxazol-4-yl)-1-[(1-fluorocyclohexyl)methyl]pyrrolo[3,2-b]pyridin-3-yl]-N-methyl-benzamide] | < 10 µM | < 1 µM | < 1 µM | 
16 | Cc1noc(C)c1-c1cnc2c(-c3ccc(C(=O)O)c(F)c3)cn(CC3CCC(F)(F)CC3)c2c1 [P-0406, 4-[1-[(4,4-difluorocyclohexyl)methyl]-6-(3,5-dimethylisoxazol-4-yl)pyrrolo[3,2-b]pyridin-3-yl]-2-fluoro-benzoic acid] | < 10 µM |  | < 1 µM | < 1 µM
17 | Cc1noc(C)c1-c1cnc2c(-c3ccc(O)c(F)c3)cn(CC3(F)CCCCC3)c2c1 [P-0500, 4-[6-(3,5-dimethylisoxazol-4-yl)-1-[(1-fluorocyclohexyl)methyl]pyrrolo[3,2-b]pyridin-3-yl]-2-fluoro-phenol] | < 10 µM | < 1 µM | < 1 µM | 
18 | Cc1n[nH]c(C)c1-c1cnc2c(-c3cnn(CC(F)(F)F)c3)cn(CC3CCC(F)(F)CC3)c2c1 [P-0440] | < 10 µM | < 1 µM | < 1 µM | 
19 | Cc1ccc(-c2cn(CC3CCC(F)(F)CC3)c3cc(-c4c(C)noc4C)cnc23)cc1C(=O)O [P-0415, 5-[1-[(4,4-difluorocyclohexyl)methyl]-6-(3,5-dimethylisoxazol-4-yl)pyrrolo[3,2-b]pyridin-3-yl]-2-methyl-benzoic acid] | < 10 µM |  | < 1 µM | < 1 µM
20 | Cc1noc(C)c1-c1cnc2c(-c3cnn(CC(F)(F)F)c3)cn(CC3(F)CC=C(F)CC3)c2c1 (stereo not drawn) [P-0356, 4-[1-[(1,4-difluorocyclohex-3-en-1-yl)methyl]-3-[1-(2,2,2-trifluoroethyl)pyrazol-4-yl]pyrrolo[3,2-b]pyridin-6-yl]-3,5-dimethyl-isoxazole] | < 10 µM |  | < 1 µM | < 1 µM
21 | Cc1noc(C)c1-c1cnc2c(-c3ccc([N+](=O)[O-])nc3)cn(CC3CCC(F)(F)CC3)c2c1 [P-0599, 4-[1-[(4,4-difluorocyclohexyl)methyl]-3-(6-nitro-3-pyridyl)pyrrolo[3,2-b]pyridin-6-yl]-3,5-dimethyl-isoxazole] | < 10 µM | < 1 µM | < 1 µM | 
